15 molecules from US20240336608A1, “IL4I1 INHIBITORS AND METHODS OF USE” (Merck Sharp & Dohme LLC, priority 2023, published 2024) can be followed below.

What is called EC50 is the concentration needed to bring the measured effect to its halfway point.

Molecules are shown by their SMILES.

For this assay, the target named is T1, recombinant IL4I1 (Homo sapiens, UniProt Q96RQ9).
T1 construct: purchased R&D Systems 5684-AO-020
T1 sequence (Q96RQ9 22-567): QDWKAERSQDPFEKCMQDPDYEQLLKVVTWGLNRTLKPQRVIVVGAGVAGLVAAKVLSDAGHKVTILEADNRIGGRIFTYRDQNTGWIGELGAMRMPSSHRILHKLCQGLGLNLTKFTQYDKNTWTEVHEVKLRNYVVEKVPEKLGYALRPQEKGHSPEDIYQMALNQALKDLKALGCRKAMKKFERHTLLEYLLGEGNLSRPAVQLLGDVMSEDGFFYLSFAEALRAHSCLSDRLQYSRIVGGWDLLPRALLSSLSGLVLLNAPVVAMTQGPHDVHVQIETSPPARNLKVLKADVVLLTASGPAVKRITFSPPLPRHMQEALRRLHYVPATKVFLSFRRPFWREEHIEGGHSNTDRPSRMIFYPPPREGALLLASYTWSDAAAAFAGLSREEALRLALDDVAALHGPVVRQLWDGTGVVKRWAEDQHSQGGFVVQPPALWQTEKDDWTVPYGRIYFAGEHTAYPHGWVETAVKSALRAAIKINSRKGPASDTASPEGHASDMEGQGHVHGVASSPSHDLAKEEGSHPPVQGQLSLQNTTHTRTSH
Briefly: IL4I1 Enzymatic Assay (Amplex Red/HRP coupled detection of H2O2, fluorescence). It is filed as biochemical. Conditions: 1 nM recombinant IL4I1; four-hour pre-incubation with compound; 1 mM each Phe, Tyr, Trp; ten-point titration. An outline of the steps:
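H2O2 output was coupled to resorufin fluorescence (ex 544/em 590) via 0.05 mM Amplex Red and 1 U/mL HRP. Substrate: Phe, Tyr, Trp at 1 mM each; enzyme 1 nM, 4 h compound pre-incubation, 120 min reaction, pH 7.0 Hepes. EC50 by nonlinear four-parameter regression, 1:3 ten-point titration.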
In the case of `O=C(NCc1ccc(-c2ccccc2)nn1)c1cn(C2COC2)nn1` [Example 290, 1-(oxetan-3-yl)-N-((6-phenylpyridazin-3-yl)methyl)-1H-1,2,3-triazole-4-carboxamide], the EC50 worked out at 209 nM. The figure for `O=C(NCc1cc(-c2ccccc2)no1)c1cn(CC(F)F)nn1` [Example 291, 1-(2,2-difluoroethyl)-N-((3-phenylisoxazol-5-yl)methyl)-1H-1,2,3-triazole-4-carboxamide] is 12 nM.

For the molecule `O=C(NCc1cc(-c2ccccc2)on1)c1cn(CC(F)F)nn1` [Example 292, 1-(2,2-difluoroethyl)-N-((5-phenylisoxazol-3-yl)methyl)-1H-1,2,3-triazole-4-carboxamide], the EC50 stood at 5 nM. On to `O=C(NCc1ccc(-c2ccccc2)nn1)c1cn(CC(F)F)nn1` [Example 293, 1-(2,2-difluoroethyl)-N-((6-phenylpyridazin-3-yl)methyl)-1H-1,2,3-triazole-4-carboxamide], for which the EC50 was found to be 21 nM. As for `Cn1cc(C(=O)NCc2nnc(N3CCCCC3)s2)nn1` [Example 294, 1-methyl-N-((5-(piperidin-1-yl)-1,3,4-thiadiazol-2-yl)methyl)-1H-1,2,3-triazole-4-carboxamide], the figure is 251 nM; as for `Cn1cc(C(=O)NCc2nnc(-c3ccc(O)cc3)s2)nn1` [Example 295, N-[[5-(4-hydroxyphenyl)-1,3,4-thiadiazol-2-yl]methyl]-1-methyl-triazole-4-carboxamide], 81 nM; as for `Cn1cc(C(=O)NCc2nnc(-c3ccc(Cl)cc3)s2)nn1` [Example 296, N-((5-(4-chlorophenyl)-1,3,4-thiadiazol-2-yl)methyl)-1-methyl-1H-1,2,3-triazole-4-carboxamide], 418 nM. As for `Cn1cc(C(=O)NCc2nnc(-c3cncs3)s2)nn1` [Example 297, 1-methyl-N-((5-(thiazol-5-yl)-1,3,4-thiadiazol-2-yl)methyl)-1H-1,2,3-triazole-4-carboxamide], the figure is 79 nM. `Cc1ccc(-n2cc(C(=O)NCc3nnc(-c4cncs4)s3)nn2)c(C)n1` [Example 298, 1-(2,6-dimethylpyridin-3-yl)-N-((5-(thiazol-5-yl)-1,3,4-thiadiazol-2-yl)methyl)-1H-1,2,3-triazole-4-carboxamide]: the concentration for a half-maximal effect (EC50) is 14 nM. Consider `Cn1cc(C(=O)NCc2nnc(-c3cn[nH]c3)s2)nn1` [Example 299, N-((5-(1H-pyrazol-4-yl)-1,3,4-thiadiazol-2-yl)methyl)-1-methyl-1H-1,2,3-triazole-4-carboxamide], for which the EC50 was determined as 215 nM. The figure for `Cc1ccc(-n2cc(C(=O)NCc3nnc(-c4cn[nH]c4)s3)nn2)c(C)n1` [Example 300, N-((5-(1H-pyrazol-4-yl)-1,3,4-thiadiazol-2-yl)methyl)-1-(2,6-dimethylpyridin-3-yl)-1H-1,2,3-triazole-4-carboxamide] is 22 nM; for `Cc1nc(OC(F)F)ccc1-n1cc(C(=O)NCc2nnc(-c3ccccc3)s2)nn1` [Example 301, 1-(6-(difluoromethoxy)-2-methylpyridin-3-yl)-N-((5-phenyl-1,3,4-thiadiazol-2-yl)methyl)-1H-1,2,3-triazole-4-carboxamide] it is 8 nM; for `O=C(NCc1nnc(-c2ccccc2)s1)c1cn(C[C@H](F)CO)nn1` [Example 302, (S)-1-(2-fluoro-3-hydroxypropyl)-N-((5-phenyl-1,3,4-thiadiazol-2-yl)methyl)-1H-1,2,3-triazole-4-carboxamide] it is 5 nM. The figure for `C[C@H](CO)n1cc(C(=O)NCc2nnc(-c3ccccc3)s2)nn1` [Example 303, (R)-1-(1-hydroxypropan-2-yl)-N-((5-phenyl-1,3,4-thiadiazol-2-yl)methyl)-1H-1,2,3-triazole-4-carboxamide] is 6 nM.

On to `CC(C)n1cc(C(=O)NCc2nnc(-c3ccccc3)s2)nn1` [Example 304, 1-isopropyl-N-((5-phenyl-1,3,4-thiadiazol-2-yl)methyl)-1H-1,2,3-triazole-4-carboxamide], for which the EC50 was determined as 4 nM.
